Here are results for 13 molecules from publication PMC11934087, “Rational Design of Stapled Covalent Peptide Modifiers of Oncoprotein E6 from Human Papillomavirus” (ACS Chemical Biology, 2025).

Values joined by “and” are separate entries in the source; they are usually repeats but may differ in a detail not shown here. Equal values may be shown once. Read-outs that look alike come from different tables or passages of the source. Where a SMILES comes first, the peptide text is derived from it. Bridges are numbered along the chain shown (N, C = ends). Where no end group is shown, it is not given here. [ ]: non-standard residue; d: D form. The star is where a group is joined. 5FAM = O=C1OC2(c3ccc(O)cc3Oc3cc(O)ccc32)c2ccc(C(=O)*)cc21; R8 = C=CCCCCCC[C@@](C)(N)C(=O)O; S5 = C=CCCC[C@](C)(N)C(=O)O; Dap = NC[C@H](N)C(=O)O; Acryloyl = C=CC(=O)*; ClAc = O=C(CCl)*; βAla = NCCC(=O)O Some results are limits rather than exact numbers.

Data set [1] is described as follows: Glutathione reactivity assay (HPLC time course). As to the method: To evaluate the reactivity toward off-target thiols, the acrylamide, bromoacetamide, and chloroacetamide covalent peptides were exposed to glutathione (10 equiv) in an HPLC time course assay over 96 h (Figure 4A). Here, a set of nonfluorescent peptides (2b, 3b, and 4b) were synthesized with an N-terminal tryptophan for quantification through absorbance measurements. Glutathione is the most abundant thiol in human cells,[40] and time point measurements were obtained by quenching reactions with cold acetonitrile containing TFA (0.1%) and 5-carboxyfluorescein as an internal standard.
Covalent peptides (100 μM) were diluted from 10 mM DMSO stock solutions (1% final DMSO content) and incubated in buffer (500 μL total volume; 50 mM Tris, 200 mM NaCl) with glutathione (10 equiv, 1 mM) at 37 °C. To quench the reaction, 10 μL of the reaction mixture was added to 100 μL of cold acetonitrile containing 0.1% TFA [v/v] and 10 μM fluorescein, included as an internal standard. Reaction mixtures were first analyzed by LCMS after 1 h of incubation to assign the glutathione adduct peak by comparison to mixtures quenched immediately following peptide addition. […] The AUC of the reacted covalent peptide was normalized to the AUC of the fluorescein standard. These values were plotted and fitted with nonlinear regression using GraphPad Prism software.

The target of data set [2] is T1, GST-E6 (GST-tagged HPV16 E6 protein) (Human papillomavirus type 16, UniProt P03126).
T1 construct: host or cells: E. coli BL21
T1 sequence (P03126 whole entry): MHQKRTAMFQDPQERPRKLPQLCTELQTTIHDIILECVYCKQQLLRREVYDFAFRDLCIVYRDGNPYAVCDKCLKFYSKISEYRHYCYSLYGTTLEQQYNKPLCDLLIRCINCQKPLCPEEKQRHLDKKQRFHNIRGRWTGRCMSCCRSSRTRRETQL
As to the kind of experiment: Competitive fluorescence polarization assay against a fluorescent E6 peptide ligand. In kind it is binding, Human Papillomavirus (HPV-16). As to the method: Next, covalent inhibition was evaluated by using a competitive FP assay. Recombinant GST-E6 was pre-incubated with a fluorescently labeled ligand for 30 min before addition of varying concentrations of the non-fluorescent covalent peptides (Figure 4B). Fluorophore polarization is greatest when the ligand is bound to its target, and consequently, a displacement of the ligand by the covalent peptide results in a decrease in polarization.[41],[42] The formation of a covalent bond between the peptide inhibitor and the C58 residue within E6 is expected to occur more slowly than noncovalent binding, permitting characterization of the affinity of the peptides 2b, 3b, and 4b.[41] […]
For noncompetitive FP experiments, varying concentrations of GST-E6 protein (38 μM; 10 point 2-fold serial dilution) were incubated with 30 nM fluorescently labeled peptides in buffer (10 μL total volume; 50 mM Tris, 200 mM NaCl, 1 mM DTT, 0.1% [v/v] Trition X-100) in black 384-well plates. […] Following incubation, FP at equilibrium was measured on a Tecan M1000 microplate reader (ex = 470 nm, em = 525; gain optimized, 200 flashes, 300 ms settle time, G-factor reference value 30 mP). Measured polarizations were fitted to a sigmoidal dose–response curve using GraphPad Prism software to generate KD values.

Data set [3] concerns the target T1, GST-E6 (GST-tagged HPV16 E6 protein). As to the kind of experiment: Noncompetitive fluorescence polarization (FP) binding assay. Further details: species or system Human Papillomavirus (HPV-16). As to the method:
An N-terminal carboxyfluorescein was included for FP analysis of binding affinity for both the natural backbone and the stapled peptides.
For noncompetitive FP experiments, varying concentrations of GST-E6 protein (38 μM; 10 point 2-fold serial dilution) were incubated with 30 nM fluorescently labeled peptides in buffer (10 μL total volume; 50 mM Tris, 200 mM NaCl, 1 mM DTT, 0.1% [v/v] Trition X-100) in black 384-well plates. For competitive FP experiments, 100 nM GST-E6 was incubated with 30 nM fluorescently labeled noncovalent peptide and varying concentrations (20 μM; 3-fold serial dilution) of covalent peptide in buffer (20 μL) with a final DMSO content of 0.5% [v/v]. Negative control (polarization reference; 30 nM fluorescent peptide, no protein) and blank reference (buffer alone) were included in triplicate for G-factor calibration. Sample plates were centrifuged (1 min, 500g) and incubated for 30 min at RT. Following incubation, FP at equilibrium was measured on a Tecan M1000 microplate reader (ex = 470 nm, em = 525; gain optimized, 200 flashes, 300 ms settle time, G-factor reference value 30 mP). Measured polarizations were fitted to a sigmoidal dose–response curve using GraphPad Prism software to generate KD values.

In the next data set the target is bovine α-chymotrypsin (Bos taurus, UniProt P00766). Kind of data set: in vitro. The settings on record: 50 μM peptide, 50 nM bovine α-chymotrypsin, pH 7.5, room temp, HPLC. As to the method:
Chymotrypsin was chosen due to its substrate selectivity for peptides containing hydrophobic side chains, including leucine, making the LxxLL motif a well-suited substrate for proteolytic cleavage by this protease.[54]
For each time point, a 50 μL aliquot was removed from the reaction mixture and quenched with 40 μL of 0.5% [v/v] trifluoroacetic acid in acetonitrile. Quenched samples were subsequently analyzed by analytical reverse-phase HPLC, and the remaining undigested peptide was quantified by integration of AUC. A plot of percent peptide remaining vs time was fit to a one-phase exponential decay to calculate half-life using GraphPad Prism software.

Data set [4] concerns the target T2, Glutathione S-transferase (GST) tagged HPV-16 E6 (Human papillomavirus type 16 (HPV-16), UniProt P03126 1-158).
T2 construct: Oncoprotein E6 of human papillomavirus type 16; GST fusion printed as 47 kDa; also called GST-E6; E6-GST; source: E. coli BL21, purified (glutathione agarose)
As to the kind of experiment: fluorescence polarisation; GST-E6 titrated (from 38 μM, 10 point 2-fold serial dilution) against 30 nM fluorescent peptide; 50 mM Tris, 200 mM NaCl, 1 mM DTT, 0.1% Triton X-100; 30 min at RT; sigmoidal dose-response fit. To be noted: both partners purified.

Data set [5] deals with T2, Glutathione S-transferase (GST) tagged …. As to the kind of experiment: fluorescence polarisation. To be noted: both partners purified.

T2 sequence (P03126 whole entry, the tested form may be a part): as the sequence (P03126 whole entry) above

`C=CC(=O)NC[C@H](NC(=O)[C@H](CC(C)C)NC(=O)[C@H](CC(C)C)NC(=O)[C@H](CCC(=O)O)NC(=O)[C@H](CCC(N)=O)NC(=O)[C@H](CC(C)C)NC(=O)[C@@H](NC(=O)[C@H](CC(C)C)NC(=O)[C@H](CCC(=O)O)NC(=O)[C@H](C)NC(=O)[C@H](C)NC(=O)[C@H](C)NC(=O)CCNC(=O)[C@H](Cc1c[nH]c2ccccc12)NC(C)=O)[C@@H](C)O)C(N)=O` [2b] (Ac-W[βAla]AAAELTLQELL[Dap](Acryloyl)-NH2): the “t1/2 of reaction with glutathione” value in data set [1] was determined as 10.3 h.
`CC(=O)N[C@@H](Cc1c[nH]c2ccccc12)C(=O)NCCC(=O)N[C@@H](C)C(=O)N[C@@H](C)C(=O)N[C@@H](C)C(=O)N[C@@H](CCC(=O)O)C(=O)N[C@@H](CC(C)C)C(=O)N[C@H](C(=O)N[C@@H](CC(C)C)C(=O)N[C@@H](CCC(N)=O)C(=O)N[C@@H](CCC(=O)O)C(=O)N[C@@H](CC(C)C)C(=O)N[C@@H](CC(C)C)C(=O)N[C@@H](CNC(=O)CCl)C(N)=O)[C@@H](C)O` [4b] (Ac-W[βAla]AAAELTLQELL[Dap](ClAc)-NH2): in data set [1] (100 μM peptide, glutathione 10 equiv (1 mM), 50 mM Tris, 200 mM NaCl, 1% DMSO, 37 °C, up to 96 h, HPLC 280 nm, GSH adduct peak area, n = 3), the “t1/2 of reaction with glutathione” value was determined as 7.0 h. Also, a half-maximal response in data set [2] (EC50) required 40 nM.
In data set [3], `CC(C)C[C@H](NC(=O)[C@H](CC(C)C)NC(=O)[C@H](CCC(=O)O)NC(=O)[C@H](CCC(N)=O)NC(=O)[C@H](CC(C)C)NC(=O)[C@@H](NC(=O)[C@]1(C)CCCC=CCCC[C@](C)(NC(=O)CCNC(=O)c2ccc3c(c2)C(=O)OC32c3ccc(O)cc3Oc3cc(O)ccc32)C(=O)N[C@@H](C)C(=O)N[C@@H](C)C(=O)N[C@@H](CCC(=O)O)C(=O)N1)[C@@H](C)O)C(=O)NCC(N)=O` [compound 5] ({5FAM-βAla}-[S5]AAE[S5]TLQELLG-NH2; staple 1-5) had a dissociation constant (Kd) of less than 1000 nM.
In data set [3], `CC(C)C[C@H](NC(=O)[C@H](CC(C)C)NC(=O)[C@]1(C)CCCC=CCCC[C@](C)(NC(=O)[C@H](CCC(=O)O)NC(=O)[C@H](C)NC(=O)[C@H](C)NC(=O)[C@H](C)NC(=O)CCNC(=O)c2ccc3c(c2)C(=O)OC32c3ccc(O)cc3Oc3cc(O)ccc32)C(=O)N[C@@H]([C@@H](C)O)C(=O)N[C@@H](CC(C)C)C(=O)N[C@@H](CCC(N)=O)C(=O)N1)C(=O)NCC(N)=O` [compound 7] ({5FAM-βAla}-AAAE[S5]TLQ[S5]LLG-NH2; staple 5-9) had a Kd of 3000 nM.
`CC(C)C[C@H](NC(=O)[C@H](CC(C)C)NC(=O)[C@H](CCC(=O)O)NC(=O)[C@]1(C)CCCC=CCCCCCC[C@@](C)(NC(=O)CCNC(=O)c2ccc3c(c2)C(=O)OC32c3ccc(O)cc3Oc3cc(O)ccc32)C(=O)N[C@@H](C)C(=O)N[C@@H](C)C(=O)N[C@@H](CCC(=O)O)C(=O)N[C@@H](CC(C)C)C(=O)N[C@@H]([C@@H](C)O)C(=O)N[C@@H](CC(C)C)C(=O)N1)C(=O)NCC(N)=O` [compound 9] ({5FAM-βAla}-[R8]AAELTL[S5]ELLG-NH2; staple 1-8): the “degradation by chymotrypsin within 4 h” value on bovine α-chymotrypsin (4 h) is listed as “no degradation”. In addition, on bovine α-chymotrypsin (up to 16 h), the “degradation by chymotrypsin on continued incubation up to 16 h” value is on record as “no significant degradation”. Also, the Kd in data set [3] was 430 nM and < 1000 nM.
Regarding `CC(C)C[C@H](NC(=O)[C@H](CC(C)C)NC(=O)[C@]1(C)CCCC=CCCCCCC[C@@](C)(NC(=O)[C@H](C)NC(=O)CCNC(=O)c2ccc3c(c2)C(=O)OC32c3ccc(O)cc3Oc3cc(O)ccc32)C(=O)N[C@@H](C)C(=O)N[C@@H](CCC(=O)O)C(=O)N[C@@H](CC(C)C)C(=O)N[C@@H]([C@@H](C)O)C(=O)N[C@@H](CC(C)C)C(=O)N[C@@H](CCC(N)=O)C(=O)N1)C(=O)NCC(N)=O` [compound 10] ({5FAM-βAla}-A[R8]AELTLQ[S5]LLG-NH2; staple 2-9), the Kd in data set [3] is more than 38000 nM.
With {5FAM-βAla}-[R8]AAELTL[S5]ELLG (staple 1-8) [(i, i + 7) stapled peptide 9], the Kd in data set [4] is 431 nM.
AAAELTLQELL-{Dap(acrylamide)} (not fully specified (N-terminus)) [nonfluorescent acrylamide covalent peptide 2b]: in data set [5], it took 2070 nM to reach a half-maximal effect (EC50).
{5FAM-βAla}-AAAE[R8]TLQELL[S5] (staple 5-12) [(i, i + 7) stapled peptide 11] came in with a dissociation constant Kd in data set [4] of 7000 nM.

B1: (i, i + 4) stapled peptide 8 (peptide)
chain: {5FAM-βAla}-AAAELTL[S5]ELL[S5]-NH2
modifications: staple 8-12
SMILES: CC(C)C[C@@H]1NC(=O)[C@H](CCC(=O)O)NC(=O)[C@@](C)(NC(=O)[C@H](CC(C)C)NC(=O)[C@@H](NC(=O)[C@H](CC(C)C)NC(=O)[C@H](CCC(=O)O)NC(=O)[C@H](C)NC(=O)[C@H](C)NC(=O)[C@H](C)NC(=O)CCNC(=O)c2ccc3c(c2)C(=O)OC32c3ccc(O)cc3Oc3cc(O)ccc32)[C@@H](C)O)CCCC=CCCC[C@@](C)(C(N)=O)NC(=O)[C@H](CC(C)C)NC1=O
B1 displayed a Kd in data set [4] of 8000 nM.
Molecule {5FAM-βAla}-[S5]AAE[S5]TLQELLG (staple 1-5) [(i, i + 4) stapled peptide 5] yielded a Kd in data set [4] of 590 nM.

B2: (i, i + 4) stapled peptide 7 (peptide)
chain: {5FAM-βAla}-AAAE[S5]TLQ[S5]LLG-NH2
modifications: staple 5-9
SMILES: CC(C)C[C@H](NC(=O)[C@H](CC(C)C)NC(=O)[C@]1(C)CCCC=CCCC[C@](C)(NC(=O)[C@H](CCC(=O)O)NC(=O)[C@H](C)NC(=O)[C@H](C)NC(=O)[C@H](C)NC(=O)CCNC(=O)c2ccc3c(c2)C(=O)OC32c3ccc(O)cc3Oc3cc(O)ccc32)C(=O)N[C@@H]([C@@H](C)O)C(=O)N[C@@H](CC(C)C)C(=O)N[C@@H](CCC(N)=O)C(=O)N1)C(=O)NCC(N)=O
B2 gave a Kd in data set [4] of 3200 nM.
As to AAAELTLQELL-{Dap(bromoacetamide)} (not fully specified (N-terminus)) [nonfluorescent bromoacetamide covalent peptide 3b], the midpoint of the response in data set [5], the EC50, lay at 2410 nM.
